Experimental data published in US20230339922A1, “COVALENT EGFR INHIBITORS AND METHODS OF USE THEREOF” (DANA-FARBER CANCER INSTITUTE, INC., priority 2020, published 2023).
pEC50: −log10 of the molar value.

Assays:
[1] = system: EGFR mutant L858R Ba/F3 cells; experiment: Ba/F3 cell proliferation (Cell Titer Glo), EGFR L858R; assay type: cell-based, murine; conditions: Mus musculus, BaF3, Ba/F3 cells with EGFR L858R, 72 hours exposure, read-out: L BaF3
Excerpt: (§1) The EGFR mutant L858R Ba/F3 cells have been previously described (Zhou, W., et al. Nature 462, 2009, 1070-1074). The EGFR C797S and C775S mutations were introduced via site directed mutagenesis using the Quick Change Site-Directed Mutagenesis kit into a vector containing EGFR […] mutation (Stratagene; La Jolla, CA) according to the manufacturer’s instructions. All constructs were confirmed by DNA sequencing. The constructs were then shuttled into the retroviral vector JP1540 by either using the Cre-recombination system (Agilent Technologies, Santa Clara, CA) or the In-fusion HD Cloning kit (Takara Bio USA, Inc.; Mountain view, CA). Ba/F3 cells were then infected with retrovirus per standard protocols, as described previously (Zhou, et al, Nature 2009). […]
(§2) Growth and inhibition of growth was assessed by the Cell Titer Glo assay (Promega, Madison, WI) and was performed according to the manufacturer’s instructions. The Cell Titer Glo assay is a luminescence-based method used to determine the number of viable cells based on quantitation of the ATP present, which is directly proportional to the amount of metabolically active cells present. Ba/F3 cells of different EGFR genotypes were exposed to compounds for 72 hours and the number of cells used per experiment was determined empirically as has been previously established (Zhou, et al., Nature 2009). […]

[2] = system: EGFR L858R/C797S Ba/F3 cells; experiment: Ba/F3 cell proliferation (Cell Titer Glo), EGFR L858R/C797S; assay type: cell-based, murine; conditions: Mus musculus, BaF3, Ba/F3 cells with EGFR L858R/C797S, 72 hours exposure, read-out: L/C797S
Excerpt: as §1, §2

In the case of C=CC(=O)Nc1cc(C(=O)Nc2nc3cccc(C)c3n2[C@@H]2CCCCN(C(=O)C=C)C2)cs1 [compound 001], the pEC50 [1] was 8.22 and the pEC50 [2] was 6.48.
